Assay results from US9556139B2, “6-substituted phenoxychroman carboxylic acid derivatives” (Array BioPharma Inc., priority 2008, dated 2017).
Like-named read-outs stand apart in the source and are kept apart here.

Target: human DP2 (Homo sapiens (Human), UniProt Q9Y5Y4)
Assay: DP-2 Binding Inhibition Assay (3H-PGD2 binding to membranes of K562 cells expressing DP2)
Conditions: for EC50: inhibition of 3H-PGD2 binding
In short: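 Membranes from K562 stably expressing DP2, incubated 60 min at room temperature with ³H-PGD2 and compound in Tris pH 7.4 buffer with 0.1% BSA, 1% HSA or 4% HSA; filtration read-out. Nonspecific binding: 1 μM unlabeled PGD2 or 5 μM known antagonist. EC50 from 4-parameter logistic fit.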

[1] = read-out: EC50 (Nm) 1% HSA, 1% HSA
[2] = read-out: EC50 (nM) 4% HSA, 4% HSA

Sequence of human DP2 (Q9Y5Y4 whole entry): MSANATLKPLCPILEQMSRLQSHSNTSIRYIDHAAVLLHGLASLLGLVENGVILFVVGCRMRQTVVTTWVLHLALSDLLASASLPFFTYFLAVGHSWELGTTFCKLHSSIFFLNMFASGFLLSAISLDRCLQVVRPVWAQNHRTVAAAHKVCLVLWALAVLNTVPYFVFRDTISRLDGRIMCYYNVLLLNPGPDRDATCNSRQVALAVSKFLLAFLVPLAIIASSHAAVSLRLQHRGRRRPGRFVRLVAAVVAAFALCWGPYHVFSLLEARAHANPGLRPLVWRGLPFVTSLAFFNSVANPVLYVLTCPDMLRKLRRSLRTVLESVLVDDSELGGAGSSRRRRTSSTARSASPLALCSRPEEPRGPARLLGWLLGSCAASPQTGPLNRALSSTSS

SMILES	EC50 [2] [nM]	other results
N#Cc1cc2c(cc1Oc1ccc(C(=O)NC3COc4ccccc4C3)cc1)OCCC2C(=O)O (stereo not shown) [Example 52, 7-(4-(chroman-3-ylcarbamoyl)phenoxy)-6-cyanochroman-4-carboxylic acid]		EC50 [1]: 90.8 nM
CSc1ccc(C2CCCC(NC(=O)c3ccc(Oc4cc5c(cc4Cl)C(C(=O)O)CCO5)cc3)C2)cc1 (stereo not shown) [Example 162, 6-Chloro-7-(4-(3-(4-(methylthio)phenyl)cyclohexylcarbamoyl)phenoxy)chroman-4-carboxylic acid]	430	
O=C(NC(CO)Cc1ccc(Cl)cc1)c1ccc(Oc2cc3c(cc2Cl)C(C(=O)O)CCO3)cc1 (stereo not shown) [Example 178, Sodium 6-chloro-7-(4-(1-(4-chlorophenyl)-3-hydroxypropan-2-ylcarbamoyl)phenoxy)chroman-4-carboxylate]	1730	
C[C@H](CNC(=O)c1ccc(Oc2cc3c(cc2C#N)C(C(=O)O)CCO3)cc1)c1ccccc1 (stereo partly drawn) [Example 131, 6-Cyano-7-(4-((S)-2-phenylpropylcarbamoyl)phenoxy)chroman-4-carboxylic acid]		EC50 [1]: 59.3 nM
O=C(NCCc1ccc(Cl)cc1Cl)c1ccc(Oc2c(Cl)cc3c(c2C2CC2)OCCC3C(=O)O)cc1 (stereo not shown) [Example 43, Sodium 6-chloro-8-cyclopropyl-7-(4-(2,4-dichlorophenethylcarbamoyl)phenoxy)chroman-4-carboxylate]	51.5	
O=C(Nc1ccc(F)c(-c2ccc(Cl)cc2)c1)c1ccc(Oc2cc3c(cc2Cl)C(C(=O)O)CCO3)cc1 (stereo not shown) [Example 71, 6-Chloro-7-(4-(4′-chloro-6-fluorobiphenyl-3-ylcarbamoyl)phenoxy)chroman-4-carboxylic acid]	119	
O=C(NCCc1ccc(Cl)cc1Cl)c1ccc(Oc2cc3c(cc2Cl)C(C(=O)O)CCO3)cc1 (single isomer, unassigned) [Example 106 Enantiomer 1, 6-chloro-7-(4-(2,4-dichlorophenethylcarbamoyl)phenoxy)chroman-4-carboxylic acid]		EC50 (EC50 (nM) 4% HSA, 4% HSA): > 5000 nM; relative activity of the enantiomers in the DP2 binding inhibition assay (assay described in Example A): less active than the sodium salt of Enantiomer 2
N#Cc1cc2c(cc1Oc1ccc(C(=O)NCCc3ccc(F)cc3)cc1)OCCC2C(=O)O (stereo not shown) [Example 49, 7-(4-((4-Fluorophenethyl)carbamoyl)phenoxy)-6-cyano-3,4-dihydro-2H-chromene-4-carboxylic acid]		EC50 [1]: 22.5 nM
O=C(NCC(O)c1ccccc1Cl)c1ccc(Oc2cc3c(cc2Cl)C(C(=O)O)CCO3)cc1 (stereo not shown) [Example 185, Sodium 6-chloro-7-(4-(2-(2-chlorophenyl)-2-hydroxyethylcarbamoyl)phenoxy)chroman-4-carboxylate]	857	
O=C(NC1CCC(c2ccccc2)CC1)c1ccc(Oc2cc3c(cc2Cl)C(C(=O)O)CCO3)cc1 (single isomer, unassigned) [Example 155 peak 2, 6-chloro-7-(4-(4-phenylcyclohexylcarbamoyl)phenoxy)chroman-4-carboxylic acid, isomer 2]		EC50 (EC50 (nM) 4% HSA, 4% HSA): 1670 nM
N#Cc1cc2c(cc1Oc1ccc(C(=O)Nc3cccc(-c4ccccc4)c3)cc1)OCCC2C(=O)O (stereo not shown) [Example 67, 7-(4-(Biphenyl-3-ylcarbamoyl)phenoxy)-6-cyanochroman-4-carboxylic acid]	173	
O=C(NCCc1cccc(Cl)c1)c1ccc(Oc2cc3c(cc2Cl)C(C(=O)O)CCO3)cc1 (stereo not shown) [Example 150, Sodium 6-chloro-7-(4-(3-chlorophenethylcarbamoyl)phenoxy)chroman-4-carboxylate]	341	
O=C(NCCc1ccc(Cl)cc1)c1ccc(Oc2ccc3c(c2)OCCC3C(=O)O)cc1 (stereo not shown) [Example 128, 7-(4-(4-chlorophenyethylcarbamoyl)phenoxy)chroman-4-carboxylic acid]	980	EC50 [1]: 108 nM
O=C(NC1COC2(CCCC2)C1)c1ccc(Oc2cc3c(cc2Cl)C(C(=O)O)CCO3)cc1 (stereo not shown) [Example 187, Sodium 7-(4-(1-oxaspiro[4.4]nonan-3-ylcarbamoyl)phenoxy)-6-chlorochroman-4-carboxylate]	649	
CC1(C)CCC(NC(=O)c2ccc(Oc3cc4c(cc3Cl)C(C(=O)O)CCO4)cc2)CC1 (stereo not shown) [Example 157, 6-Chloro-7-(4-(4,4-dimethylcyclohexylcarbamoyl)phenoxy)chroman-4-carboxylic acid]	1580	
O=C(NCCc1ccc2ccccc2c1)c1ccc(Oc2cc3c(cc2Cl)C(C(=O)O)CCO3)cc1 (stereo not shown) [Example 87, Sodium 6-chloro-7-(4-(2-(naphthalen-2-yl)ethylcarbamoyl)phenoxy)chroman-4-carboxylate]	234	
O=C(NCCc1cc(F)ccc1Oc1ccc(Cl)cc1Cl)c1ccc(Oc2cc3c(cc2Cl)C(C(=O)O)CCO3)cc1 (stereo not shown) [Example 213, sodium 6-chloro-7-(4-(2-(2,4-dichlorophenoxy)-5-fluorophenethylcarbamoyl)phenoxy)chroman-4-carboxylate]	45.1	
Cc1cc(Oc2cc3c(cc2Cl)C(C(=O)O)CCO3)ccc1C(=O)NCCc1ccc(Cl)cc1Cl (stereo not shown) [Example 183, Sodium 6-chloro-7-(4-(2,4-dichlorophenethylcarbamoyl)-3-methylphenoxy)chroman-4-carboxylate]	968	

SMILES	EC50 [2] [nM]	other results
O=C(NCCc1ccc(F)cc1Cl)c1ccc(Oc2cc3c(cc2Cl)C(C(=O)O)CCO3)cc1 (stereo not shown) [Example 97, Sodium 6-chloro-7-(4-(2-chloro-4-fluorophenethylcarbamoyl)phenoxy)chroman-4-carboxylate]	190	
COc1ccccc1CCNC(=O)c1ccc(Oc2cc3c(cc2Cl)C(C(=O)O)CCO3)cc1 (stereo not shown) [Example 63, Sodium 6-chloro-7-(4-(2-methoxyphenethylcarbamoyl)phenoxy)chroman-4-carboxylate]	305	
CSc1ccc(CCNC(=O)c2ccc(Oc3cc4c(cc3Cl)C(C(=O)O)CCO4)cc2)cc1 (stereo not shown) [Example 118, Sodium 6-chloro-7-(4-(4-(methylthio)phenethylcarbamoyl)phenoxy)chroman-4-carboxylate]	426	
O=C(NCCc1cccn1-c1ccc(C(F)(F)F)cc1)c1ccc(Oc2cc3c(cc2Cl)C(C(=O)O)CCO3)cc1 (stereo not shown) [Example 194, sodium 6-chloro-7-(4-(2-(1-(4-(trifluoromethyl)phenyl)-1H-pyrrol-2-yl)ethylcarbamoyl)phenoxy)chroman-4-carboxylate]	3010	
O=C(NCCc1cccc(Cl)c1Cl)c1ccc(Oc2cc3c(cc2Cl)C(C(=O)O)CCO3)cc1 (stereo not shown) [Example 139, Sodium 6-chloro-7-(4-(2,3-dichlorophenethylcarbamoyl)phenoxy)chroman-4-carboxylate]	226	
CC(Cc1ccc(Cl)cc1)NC(=O)c1ccc(Oc2cc3c(cc2C#N)C(C(=O)O)CCO3)cc1 (stereo not shown) [Example 132, 7-(4-(1-(4-Chlorophenyl)propan-2-ylcarbamoyl)phenoxy)-6-cyanochroman-4-carboxylic acid]		EC50 [1]: 37.4 nM
N#Cc1cc2c(cc1Oc1ccc(C(=O)NCCc3ccc(C(F)(F)F)cc3)cc1)OCCC2C(=O)O (stereo not shown) [Example 50, 7-(4-((4-(Trifluoromethyl)phenethyl)carbamoyl)phenoxy)-6-cyano-3,4-dihydro-2H-chromene-4-carboxylic acid]		EC50 [1]: 11 nM
O=C(NCCc1ccc(SC(F)(F)F)cc1)c1ccc(Oc2cc3c(cc2Cl)C(C(=O)O)CCO3)cc1 (stereo not shown) [Example 147, Sodium 6-chloro-7-(4-(4-(trifluoromethylthio)phenethylcarbamoyl)phenoxy)chroman-4-carboxylate]	240	
N#Cc1cc2c(cc1Oc1ccc(C(=O)NCC3Cc4ccccc4C3)cc1)OCCC2C(=O)O (stereo not shown) [Example 126, 6-Cyano-7-(4-((2,3-dihydro-1H-inden-2-yl)methylcarbamoyl)phenoxy)chroman-4-carboxylic acid]	179	
CC(C)(C)C1CCC(NC(=O)c2ccc(Oc3cc4c(cc3Cl)C(C(=O)O)CCO4)cc2)CC1 (stereo not shown) [Example 156, 7-(4-(4-tert-butylcyclohexylcarbamoyl)phenoxy)-6-chlorochroman-4-carboxylic acid]	509	
O=C(NCC(O)c1ccc(Cl)cc1)c1ccc(Oc2cc3c(cc2Cl)C(C(=O)O)CCO3)cc1 (stereo not shown) [Example 184, Sodium 6-chloro-7-(4-(2-(4-chlorophenyl)-2-hydroxyethylcarbamoyl)phenoxy)chroman-4-carboxylate]	824	
CC(C)(C)c1ccc(CCNC(=O)c2ccc(Oc3cc4c(cc3Cl)C(C(=O)O)CCO4)cc2)cc1 (stereo not shown) [Example 142, Sodium 7-(4-(4-tert-butylphenethylcarbamoyl)phenoxy)-6-chlorochroman-4-carboxylate]	140	
N#Cc1cc2c(cc1Oc1ccc(C(=O)NC3Cc4ccc(Cl)cc4C3)cc1)OCCC2C(=O)O (stereo not shown) [Example 73, 7-(4-(5-Chloro-2,3-dihydro-1H-inden-2-ylcarbamoyl)phenoxy)-6-cyanochroman-4-carboxylic acid]		EC50 [1]: 42.4 nM
N#Cc1cc2c(cc1Oc1ccc(C(=O)NOCc3ccc(Cl)cc3)cc1)OCCC2C(=O)O (stereo not shown) [Example 7, 7-(4-(4-Chlorobenzyloxycarbamoyl)phenoxy)-6-cyanochroman-4-carboxylic acid]		EC50 [1]: 19 nM
O=C(NCCc1ccc(Cl)cc1)c1ccc(Oc2c(C3CC3)cc3c(c2C2CC2)OCCC3C(=O)O)cc1 (stereo not shown) [Example 39, Sodium 7-(4-(4-chlorophenethylcarbamoyl)phenoxy)-6,8-dicyclopropylchroman-4-carboxylate]	68.2	
O=C(NCCc1c(F)cccc1Cl)c1ccc(Oc2cc3c(cc2Cl)C(C(=O)O)CCO3)cc1 (stereo not shown) [Example 82, Sodium 6-chloro-7-(4-(2-chloro-6-fluorophenethylcarbamoyl)phenoxy)chroman-4-carboxylate]	473	
O=C(NCCCCc1ccc(Cl)cc1Cl)c1ccc(Oc2cc3c(cc2Cl)C(C(=O)O)CCO3)cc1 (stereo not shown) [Example 19, Sodium 6-chloro-7-(4-(4-(2,4-dichlorophenyl)butylcarbamoyl)phenoxy)chroman-4-carboxylate]	638	
